Assay results taken from patent US4018753A, “Polypeptides with ACTH-like activities” (Shionogi & Co., Ltd., priority 1974, dated 1977).
Square brackets hold non-standard residues; d marks the D form. Ends that are not written are not given here. Peptide text beside a SMILES is read from it. Aib = CC(C)(N)C(=O)O

How the values were obtained:
melanocyte = experiment: In vivo melanocyte-stimulating activity; settings: relative potency
Protocol: The in vivo melanocyte-stimulating activity was determined according to the method described in Endocrinol. Japonica 19, 383 (1972).

rats = experiment: Effect on adrenal growth and thymus involution; assay type: in vivo; set-up: key: *: The effects on adrenal growth and thymus involution are very weak; settings: i.m. 20 μg and 100 μg/rat/day for 2 days
Protocol: The effect on adrenal growth and thymus involution was determined in the following manner: peptides were intramuscularly injected into rats at a dose of 20 μg and 100 μg/rat/day respectively for 2 days. The rats were then submitted to autopsy 24 hours after the last injection, and then the adrenal and thymus were weighed respectively.

hypophysectomized rat [1] = experiment: Adrenal-stimulating activity by intramuscular administration to hypophysectomized rat; assay type: in vivo; settings: relative potency; USP Corticotropin Reference Standard; injected into thigh muscle, blood sample 30 minutes after injection, 11-hydroxycorticosteroids
Protocol: (§1) Assays for adrenal-stimulating activity of the present polypeptides were carried out according to the different methods, comparing with that of native corticotropin (ACTH), [Gly^1 ]-ACTH(1-18)-NH2 [Bull.Chem.Soc.Japan 43 196 (1970)], [Aib^1 ]-ACTH(1-18)-NH2 [ibid., 43, 3873 (1970)], [Aib^1,Lys^17,18 ]-ACTH(1-18)-NH2, Cortrosyn^R (N.V.Organon, Netherland) and Cortrosyn-Z (N.V.Organon, Netherland). The adrenal-stimulating activity by the intravenous administration to hypophysectomized rat was determined in such a manner that a peptide preparation was injected into the femoral vein and a blood sample was collected from the abdominal aorta 30 minutes after the injection. The adrenal-stimulating activity by the intramuscular administration to hypophysectomized rat was also determined, where a peptide preparation was injected into the thigh muscle and a blood sample was collected from the abdominal aorta 30 minutes after injection. Throughout the experiment, the USP Corticotropin Reference Standard was used as a standard and the production of 11-hydroxycorticosteroids was determined by the fluorophotometric method of Peterson [J.Biol. Chem. 225 25 (1957)]. For each assay method several determinations were usually performed and the data obtained independently were submitted to the statistical treatment by Sheps and Moore procedure [J.Pharmacol. Extl. Therap. 128, 99 (1960)].

hypophysectomized rat [2] = experiment: Adrenal-stimulating activity by intravenous administration to hypophysectomized rat; assay type: in vivo; settings: relative potency; USP Corticotropin Reference Standard; injected into femoral vein, blood sample 30 minutes after injection, 11-hydroxycorticosteroids
Protocol: as §1

[3] = relative potency, autopsy 24 hours after last injection, adrenal and thymus weighed

## CSCC[C@H](NC(=O)[C@H](CO)NC(=O)[C@H](Cc1ccc(O)cc1)NC(=O)C(C)(C)N)C(=O)N[C@@H](CCC(=O)O)C(=O)N[C@@H](Cc1c[nH]cn1)C(=O)N[C@@H](Cc1ccccc1)C(=O)N[C@@H](CCCNC(=N)N)C(=O)N[C@@H](Cc1c[nH]c2ccccc12)C(=O)NCC(=O)N[C@@H](CCCCN)C(=O)N1CCC[C@H]1C(=O)N[C@H](C(=O)NCC(=O)N[C@@H](CCCCN)C(=O)N[C@@H](CCCCN)C(=O)N[C@@H](CCCCN)C(=O)N[C@@H](CCCCN)C(N)=O)C(C)C [[Aib^1,Lys^17,18]ACTH(1-18)NH2, [Aib^1,Lys^17,18]-ACTH(1-18)-NH2] (H-[Aib]YSMEHFRWGKPVGKKKK-NH2)
melanocyte
  Melanocyte-stimulating activity b) in vivo: 0.82
rats; [3]
  effect on adrenal growth and thymus involution a): 0.40
Hypophysectomized rat [1]
  Adrenal-stimulating activity i.m.: 9.4
Hypophysectomized rat [2]
  Adrenal-stimulating activity i.v.: 9.3

## CSCC[C@H](NC(=O)[C@H](CO)NC(=O)[C@H](Cc1ccc(O)cc1)NC(=O)C(C)(C)N)C(=O)N[C@@H](CCC(=O)O)C(=O)N[C@@H](Cc1c[nH]cn1)C(=O)N[C@@H](Cc1ccccc1)C(=O)N[C@@H](CCCNC(=N)N)C(=O)N[C@@H](Cc1c[nH]c2ccccc12)C(=O)NCC(=O)N[C@@H](CCCCN)C(=O)N1CCC[C@H]1C(=O)N[C@H](C(=O)NCC(=O)N[C@@H](CCCCN)C(=O)N[C@@H](CCCCN)C(=O)N[C@@H](CCCNC(=N)N)C(=O)N[C@@H](CCCNC(=N)N)C(N)=O)C(C)C [[Aib^1]ACTH(1-18)NH2, [Aib^1]-ACTH(1-18)-NH2] (H-[Aib]YSMEHFRWGKPVGKKRR-NH2)
melanocyte
  Melanocyte-stimulating activity b) in vivo: 1.00
rats; [3]
  effect on adrenal growth and thymus involution a): 0.12
Hypophysectomized rat [1]
  Adrenal-stimulating activity i.m.: 9.9
Hypophysectomized rat [2]
  Adrenal-stimulating activity i.v.: 4.1

## GYSMEHFRWGKPVGKKRR-NH2 [[Gly^1]ACTH(1-18)NH2, [Gly^1]-ACTH(1-18)-NH2]
melanocyte
  Melanocyte-stimulating activity b) in vivo: 0.11
rats; [3]
  effect on adrenal growth and thymus involution a): very weak
rats; symbol * in the table
  effect on adrenal growth and thymus involution a): *
Hypophysectomized rat [1]
  Adrenal-stimulating activity i.m.: 1.0
Hypophysectomized rat [2]
  Adrenal-stimulating activity i.v.: 1.0

## Native ACTH: native corticotropin (ACTH) (SYSMEHFRWGKPVGKKRRPVKVYPNGAEDESAEAFPLEF; Corticotropin; UniProt P01189 138-176, looked up)
rats; [3]
  effect on adrenal growth and thymus involution a): very weak
rats; symbol * in the table
  effect on adrenal growth and thymus involution a): *
Hypophysectomized rat [1]
  Adrenal-stimulating activity i.m.: 4.0
Hypophysectomized rat [2]
  Adrenal-stimulating activity i.v.: 1.0
